We go through 17 molecules from patent US8865686B2, “Tetracycline compounds as tyrosyl-DNA phosphodiesterase I inhibitors” (The United States of America, as Represented by the …, priority 2006, dated 2014).

Test [1] has as its target T1, Recombinant Tdp1 (Homo sapiens (Human), UniProt Q9NUW8). As to the kind of experiment: AlphaScreen Tdp1 assay (qHTS, FITC/biotin phosphotyrosine DNA substrate). The format is biochemical. The method, then: Tween-20, KCl, fluorescein isothiocyanate (FITC), and PBS were procured from Sigma-Aldrich. DMSO certified ACS grade was obtained from Fisher. The AlphaScreen FITC/streptavidin detection kit was from PerkinElmer Life and Analytical Sciences (Waltham, Mass.). Assay buffer consisted of PBS, pH 7.4, 80 mM KCl and 0.05% Tween-20. Recombinant Tdp1 was expressed and purified as described elsewhere (Antony et al., Nucleic Acids Research 35:4474-4484 (2007). The Sigma-Aldrich LOPAC^1280 library of 1280 known bioactives was received as DMSO solutions at initial concentration of 10 mM and plated as described elsewhere (Inglese et al., Proc. Natl. Acad. Sci. USA 103:11473-11478 (2006); Yasgar et al., J. Assoc. Lab. Automat. 13:78-89 (2008)).
The biotinylated phosphotyrosine deoxyoligonucleotide (5′ biotin-[…]-pY) was synthesized, purified, and QC-tested by Midland Certified Reagent Company, Midland, Tex. Standard overnight 4° C. FITC coupling was performed in-house. The FITC-labeled substrate was purified on Biospin-6 desalting columns (Bio-Rad, Hercules, Calif.) and its concentration was determined by UV-vis spectrophotometry.
Assay reaction mixtures and substrate/beads titrations were initially performed at 20 μl final volume in 384-well plates. For the subsequent 1,536-well based experiments, Flying Reagent Dispenser (FRD, Aurora Discovery, presently Beckman-Coulter) was used to dispense reagents into the assay plates, while a pintool was used to deliver DMSO solutions of the test inhibitors. Plates were read on Envision plate reader (PerkinElmer) equipped with AlphaScreen optical detection module. For testing the effect of enzyme reaction conditions on the IC50 values for select inhibitors, the respective compounds were prepared as 24-point twofold intra-plate dilution series and assayed as described.
Three μl of reagents (buffer in columns 3 and 4 as negative control and 1.33 nM Tdp1 in columns 1, 2, 5-48) were dispensed into 1,536-well black solid bottom plate. Compounds (final concentrations in the range of 0.7 nM to 57 μM) were transferred via Kalypsys pintool equipped with 1,536-pin array. The plate was incubated for 15 min at room temperature, and then 1 μl of substrate (15 nM final concentration) was added to start the reaction. After 5 min incubation at room temperature, 1 μl of bead mix (15 μg/mL final concentration) was added and the plate was further incubated for 10 min at room temperature prior to signal measurement. Substrate and beads were prepared and kept in amber bottles to prevent photo-degradation. Library plates were screened starting from the lowest and proceeding to the highest concentration. Vehicle-only plates, with DMSO being pin-transferred to the entire column 5-48 compound area, were included at the beginning and the end of the screen in order to record any systematic shifts in assay signal. Screening data were corrected, normalized, and curve-fitted by using in-house developed algorithms.
To configure an assay for Tdp1, we utilized the ability of the AlphaScreen system to report on the integrity of the phosphotyrosine-based substrate, viewed here as a multi-site analyte. The AlphaScreen signal is a direct consequence of the close proximity of donor and acceptor beads, which is achieved by the formation of a ternary donor-analyte-acceptor recognition complex. To realize the AlphaScreen assay using the consensus DNA-pY substrate for Tdp1, 5′[…]pY, recognition elements for both bead types had to be introduced. To this end, we coupled a fluorescein isothiocyanate (FITC) to the amino group of tyrosine in a phosphotyrosine-containing single stranded DNA substrate bearing a biotin at its 5′ end. […] Conversely, if the Tdp1 catalysis was inhibited, an elevated signal would be observed for that sample.

Test [2] has as its target T1, Recombinant Tdp1. As to the kind of experiment: Secondary radiolabel gel-based Tdp1 assay (N14Y substrate). The class given is biochemical. The method, then:
One nanomolar of 5′-^32P-labeled substrate (N14Y; 5′-[…]-Tyrosine-3′) was incubated with 0.1 nM recombinant Tdp1 in the absence or presence of inhibitor for 20 min at 25° C. in a reaction buffer containing 50 mM Tris-HCl (pH 7.5), 80 mM KCl, 2 mM EDTA, and 40 μg/ml BSA. Reactions were terminated by the addition of one volume of gel loading buffer (96% (v/v) formamide, 10 mM EDTA, 1% (w/v) xylene cyanol and 1% (w/v) bromphenol blue). The samples were subsequently heated to 95° C. for 5 min and subjected to 20% denaturing PAGE. When the Tdp1 mutant H493R (100 nM) was employed, the reactions were stopped with one volume of SDS loading dye and analyzed by 4-20% SDS-PAGE. All gels were dried and exposed on a PhosphorImager screen. Imaging and quantification were done using a Typhoon 8600 and ImageQuant software (GE Healthcare, Piscataway, N.J.).
Activity of certain compounds was also tested in secondary radiolabel gel-based assays (Inamdar et al., J. Biol. Chem. 277:27162-27168 (2002); Davies et al., J. Mol. Biol. 324:917-932 (2002)).

[3] abbreviates: 1,536-well AlphaScreen qHTS, N/D = not detectable, read-out: Activity (qHTS) IC50.
Where [4] appears, read: 1 nM N14Y, 0.1 nM Tdp1, 20 min at 25° C., N/D = not detectable, read-out: Activity (Gel).

Some results are limits rather than exact numbers.

T1 sequence (Q9NUW8 whole entry): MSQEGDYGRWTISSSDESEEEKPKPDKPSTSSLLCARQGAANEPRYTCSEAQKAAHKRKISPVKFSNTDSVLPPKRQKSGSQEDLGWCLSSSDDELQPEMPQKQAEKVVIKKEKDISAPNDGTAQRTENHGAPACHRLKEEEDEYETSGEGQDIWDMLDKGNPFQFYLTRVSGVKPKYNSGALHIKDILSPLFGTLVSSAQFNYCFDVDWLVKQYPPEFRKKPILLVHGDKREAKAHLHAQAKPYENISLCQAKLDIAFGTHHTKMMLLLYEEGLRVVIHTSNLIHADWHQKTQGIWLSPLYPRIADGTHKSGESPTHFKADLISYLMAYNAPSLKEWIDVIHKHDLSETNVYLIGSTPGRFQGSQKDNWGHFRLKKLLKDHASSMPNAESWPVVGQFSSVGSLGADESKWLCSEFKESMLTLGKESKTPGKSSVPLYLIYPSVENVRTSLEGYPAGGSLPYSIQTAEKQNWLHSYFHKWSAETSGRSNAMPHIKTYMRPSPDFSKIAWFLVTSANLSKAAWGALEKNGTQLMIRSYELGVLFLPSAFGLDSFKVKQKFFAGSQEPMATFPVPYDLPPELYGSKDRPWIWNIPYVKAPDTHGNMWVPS

As to `CN(C)[C@H]1C(O)=C(C(=O)NCN2CCCC2)C(=O)[C@]2(O)C(O)=C3C(=O)c4c(O)cccc4[C@](C)(O)[C@H]3C[C@H]12`, the IC50 is 0.2 µM in test [1] (setting [3]) and less than 0.1 µM in test [2] (1 nM N14Y, 0.1 nM Tdp1, value printed with question mark, read-out: Activity (Gel)). For `CN(C)C1C(=O)C(C(N)=O)C(=O)C2(O)C(=O)C3C(=O)c4c(O)cccc4C(C)(O)C3C(O)C12` (centres unmarked), the IC50 in test [1] was 0.2 µM; in test [2], 5 µM. In the case of `CN(C)C1C(O)=C(C(N)=O)C(=O)[C@@]2(O)C(O)=C3C(=O)c4c(O)cccc4[C@](C)(O)C3C(O)C12` (some centres unmarked), the results for the IC50 in test [1] (setting [3]) and in test [2] (setting [4]) were 0.63 µM and 8 µM, respectively. On the same counts, the results for `CN(C)[C@H]1C(O)=C(C(=O)NCN2CCCC2)C(=O)[C@]2(O)C(O)=C3C(=O)c4c(O)cccc4[C@@](C)(O)[C@H]3C[C@@H]12` are 1.26 µM and 30.2 µM. On the same counts, the results for `CN(C)[C@@H]1C(O)=C(C(N)=O)C(=O)[C@]2(O)C(O)=C3C(=O)c4c(O)ccc(Cl)c4[C@](C)(O)[C@H]3C[C@@H]12` are 2.82 µM and 13.2 µM. The like results for `CN(C)C1C(O)=C(C(N)=O)C(=O)[C@]2(O)C(O)=C3C(=O)c4c(O)cccc4[C@](C)(O)C3C(O)C12` (some centres unmarked) were, in that order, 3.16 µM and 10 µM. Turning to `CN(C)C1C(O)=C(C(N)=O)C(=O)[C@@]2(O)C(O)=C3C(=O)c4c(O)ccc(Cl)c4[C@](C)(O)C3CC12` (some centres unmarked), the IC50 in test [1] (setting [3]) stood at 3.16 µM; in test [2] (setting [4]), 20 µM.

As to `CN(C)C1C(O)=C(C(N)=O)C(=O)[C@@]2(O)C(O)=C3C(=O)c4c(O)cccc4[C@@](C)(O)C3[C@H](O)C12` (some centres unmarked), the IC50 in test [1] (setting [3]) worked out at 4.47 µM; in test [2] (setting [4]), 3 µM. On the same counts, the results for `CN(C)[C@H]1C(O)=C(C(N)=O)C(=O)[C@]2(O)C(O)=C3C(=O)c4c(O)cccc4[C@@](C)(O)[C@H]3C[C@@H]12` are 14.1 µM and 10 µM. On to `CN(C)C1C(O)=C(C(N)=O)C(=O)[C@@]2(O)C(O)=C3C(=O)c4c(O)cccc4[C@@](C)(O)C3C[C@@H]12` (some centres unmarked), for which, in test [1] (setting [3]), the IC50 is 10 µM. On the same count and under the same terms, with `CN(C)[C@H]1C(O)=C(C(=O)NCN[C@@H](CCCCN)C(=O)O)C(=O)[C@]2(O)C(O)=C3C(=O)c4c(O)cccc4[C@@](C)(O)[C@H]3C[C@@H]12` the figure was 12.6 µM. On to `CN(C)C1C(O)=C(C(N)=O)C(=O)[C@@]2(O)C(O)=C3C(=O)c4c(O)cccc4[C@@](C)(O)C3CC12.Cl` (some centres unmarked), for which, in test [1] (1,536-well AlphaScreen qHTS, N/D = not detectable), the “Activity (qHTS) IC50” value is on record as “IC50: N/D”.

On to `CN(C)[C@@H]1C(O)=C(C(=O)NCN2CCCC2)C(=O)[C@@]2(O)C(O)=C3C(=O)c4c(O)cccc4[C@@](C)(O)C3CC12` (some centres unmarked), for which the IC50 in test [1] (setting [3]) is 0.71 µM.

Consider `CN(C)[C@@H]1C(O)=C(C(N)=O)C(=O)[C@@]2(O)C(O)=C3C(=O)c4c(O)cccc4[C@@](C)(O)[C@H]3[C@H](O)[C@@H]12`, for which the IC50 in test [1] (setting [3]) worked out at 0.5 µM. Still for that read-out and setting: with `CN(C)[C@@H]1C(O)=C(C(N)=O)C(=O)[C@]2(O)C(O)=C3C(=O)c4c(O)cccc4[C@@](C)(O)[C@H]3[C@H](O)[C@@H]12` the figure was 1.59 µM. Consider `CN(C)[C@@H]1C(=O)C(C(N)=O)=C(O)[C@@]2(O)C(O)=C3C(=O)c4c(O)cccc4[C@@](C)(O)[C@H]3[C@H](O)[C@@H]12`, for which the IC50 in test [1] stood at 0.4 µM. As for `[O]=[V]([O-])([O-])[O-]` [vanadate, reference compound], the “Tdp1 inhibition potency range” value in test [1] (AlphaScreen assay set-up in 384-well plates) was “sub-millimolar”.
